Some test systems named below: SK-MEL-5 melanoma; RPMI-8226 leukemia; DMS 273 small cell lung; LXFL 529 NSCLC; DLD-1 colon; DMS 114 small cell lung; HOP-18 NSCLC; KM20L2 colon; M19-MEL melanoma; SNB-78 CNS.
Common to all, as to assay: NCI anticancer screen, dose series, 48 h

This passage reports TGI results from PubChem BioAssay (NCI).

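In this assay, cells in 96-well plates receive the compound at five concentrations for 48 hours. Endpoints are linearly interpolated between the surrounding concentrations. TGI denotes the concentration required for complete inhibition of growth.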 A value given as a limit tells only on which side of the number the result lay.

Regarding `Cc1nn(C(=O)Cc2ccccc2)c2c1C(c1ccccc1)SC(N)=N2` (stereo unspecified), the TGI in the assay with SK-MEL-5 melanoma and in the assay on RPMI-8226 leukemia was more than 100 µM throughout.

The compound `COc1ccc(S(=O)(=O)n2c3c(c4ccccc42)[C@@H]2[C@@H](CCCN2C(=O)CS(=O)c2ccc(C)cc2)[C@H](Cl)C3)cc1` (stereo partly specified) had a TGI in the assay on SK-MEL-5 melanoma of more than 100 µM.

As for `O=C(O)Cc1ccc([N+](=O)[O-])cc1[N+](=O)[O-]`, the TGI in the assay on SK-MEL-5 melanoma and in the assay on RPMI-8226 leukemia was more than 100 µM throughout.

As for `O=C1/C(=C\c2ccc(Cl)cc2Cl)Sc2scc(-c3ccc(O)c(O)c3)[n+]21`, the TGI in the assay with SK-MEL-5 melanoma was found to be 22.9 µM.

With `O=C(C(=O)n1ccc2ccccc21)n1ccc2ccccc21`, the TGI with SK-MEL-5 melanoma and with RPMI-8226 leukemia was more than 100 µM throughout.

As to `CC(N)/C(N)=N/O` (stereo unspecified), the TGI in the assay on SK-MEL-5 melanoma and with RPMI-8226 leukemia was more than 100 µM in each case.

For the compound `O=[N+]([O-])c1ccc2nc(Nc3ccccc3)c(Nc3ccccc3)nc2c1`, the TGI is 2.82 µM in the assay with SK-MEL-5 melanoma and more than 100 µM in the assay on RPMI-8226 leukemia.

On to `COc1ccc(C(SCCO)(c2ccccc2)c2ccc(OC)cc2)cc1`, for which the values for the TGI with SK-MEL-5 melanoma and with RPMI-8226 leukemia were 21.1 µM and 69.1 µM, respectively.

As for `C[C@]12c3c4cc(NC(=O)C(=O)NCc5ccc(-c6ccccn6)nc5)cc3Oc3cc(NC(=O)C(=O)NCc5ccc(-c6ccccn6)nc5)cc(c31)OC1C=C(NC(=O)C(=O)NCc3ccc(-c5ccccn5)nc3)C=C(O4)C12` (stereo partly specified), the TGI in the assay on SK-MEL-5 melanoma and in the assay on RPMI-8226 leukemia was more than 100 µM throughout.

On to `CSC(=O)c1sc(SC)[n+](-c2ccccc2)c1O`, for which the results for the TGI with SK-MEL-5 melanoma and in the assay with RPMI-8226 leukemia were 55.7 µM and more than 100 µM, respectively.

With `C=C1C(=O)O[C@@H]2/C=C(C)/C=C\[C@@H]3O[C@@]3(C)C[C@@H](O)C12` (stereo partly specified), the TGI in the assay with SK-MEL-5 melanoma amounted to 29 µM; in the assay with RPMI-8226 leukemia it was 18.7 µM.

In the case of `O=S(=O)(O)c1cc(N=Nc2c(O)ccc3ccccc23)cc2c(S(=O)(=O)O)cccc12`, the TGI in the assay on SK-MEL-5 melanoma and in the assay with RPMI-8226 leukemia was more than 100 µM each time.

As for `CCOC(=O)c1cn2c(n1)sc1cc(F)ccc12`, the TGI with SK-MEL-5 melanoma and with RPMI-8226 leukemia was more than 100 µM throughout.

With `Cc1[nH]c(=O)nc2sc(=NC3CCCCC3)n(C3CCCCC3)c(=O)c12`, the TGI with SK-MEL-5 melanoma and in the assay with RPMI-8226 leukemia was more than 100 µM throughout.

In the case of `COc1cc(OCCN(C)C)c2[nH]c(C(=O)N3CC(CCl)c4ccc(N)cc43)cc2c1` (stereo unspecified), the TGI was determined as 0.197 µM in the assay on SK-MEL-5 melanoma and 0.271 µM with RPMI-8226 leukemia.

Regarding `COc1cccc(-c2cc(=O)c3cc(N4CCCCC4)ccc3[nH]2)c1`, the values for the TGI in the assay on SK-MEL-5 melanoma and with RPMI-8226 leukemia were 9.55 µM and more than 100 µM, respectively.

As to `CC(=O)CC1CCC(=O)/C=C/C(=O)OC(CC(C)=O)CCC(=O)/C=C/C(=O)O1` (stereo unspecified), the values for the TGI in the assay on SK-MEL-5 melanoma and in the assay with RPMI-8226 leukemia were 27.3 µM and more than 100 µM, respectively.

For `Oc1ccc(NCn2c(=S)sc3ccccc32)cc1`, the TGI in the assay on SK-MEL-5 melanoma and with RPMI-8226 leukemia was more than 100 µM throughout.

For the compound `C[N+]12C=CC=C1C(N1CCCC1)c1scc(-c3ccc(Br)cc3)c12` (stereo unspecified), the results for the TGI with SK-MEL-5 melanoma and in the assay with RPMI-8226 leukemia were 16.1 µM and 28.9 µM, respectively.

For the compound `O=c1c(F)cn(Cc2c(Cl)cccc2Cl)c(=O)n1Cc1c(Cl)cccc1Cl`, the TGI in the assay on SK-MEL-5 melanoma and in the assay on RPMI-8226 leukemia was more than 31.6 µM each time.

`COc1cc(-c2cccs2)sc1-c1cccs1`: the TGI in the assay with DMS 273 small cell lung is more than 100 µM; in the assay with SK-MEL-5 melanoma, more than 100 µM; in the assay with LXFL 529 NSCLC, more than 100 µM; with DLD-1 colon, more than 100 µM; in the assay with DMS 114 small cell lung, 94.3 µM; in the assay with HOP-18 NSCLC, 17.2 µM. Moreover, the TGI in the assay on KM20L2 colon was 85.1 µM; in the assay with RPMI-8226 leukemia, more than 100 µM; in the assay with M19-MEL melanoma it was more than 100 µM; in the assay on SNB-78 CNS it was more than 100 µM.

On to `COc1ccc(C2c3cc4c(cc3OC3(OC)COC(=O)C23)OCO4)c(OC)c1` (stereo unspecified), for which the results for the TGI in the assay on SK-MEL-5 melanoma and in the assay with RPMI-8226 leukemia were more than 90.1 µM and more than 45.5 µM, respectively.

As to `COCOC1/C=C/CCCCC(=O)C(C)C#CC1` (stereo unspecified), the TGI in the assay on SK-MEL-5 melanoma was 15.3 µM; in the assay with RPMI-8226 leukemia it was 5.96 µM.

As for `CON(C)C(=O)C(C)N(Cc1ccccc1)Cc1ccccc1` (stereo unspecified), the TGI with SK-MEL-5 melanoma and in the assay with RPMI-8226 leukemia was more than 100 µM throughout.

As for `C=C1c2nc3ccccc3n2C=C(c2ccc(OC)cc2)N1c1ccc(OC)cc1`, the TGI was 35.1 µM with SK-MEL-5 melanoma and more than 100 µM in the assay on RPMI-8226 leukemia.

Regarding `O=C1NC2(CCN(CCc3ccccc3)CC2)Oc2ccccc21`, the TGI in the assay on SK-MEL-5 melanoma is 27.8 µM; with RPMI-8226 leukemia, more than 100 µM.

For the compound `CCCCCCc1cc2cc(-c3cn4ccsc4n3)c(=O)oc2cc1O`, the results for the TGI in the assay on SK-MEL-5 melanoma and in the assay on RPMI-8226 leukemia were more than 44.9 µM and more than 100 µM, respectively.

With `Cc1ccc(S(=O)(=O)N2C3C=CC(C3)[C@@H]2C(Cl)(Cl)Cl)cc1` (stereo partly specified), the TGI was found to be 38.3 µM with SK-MEL-5 melanoma and 32.1 µM in the assay on RPMI-8226 leukemia.

Consider `CC(C)=C[C@H]1C[C@H](C)[C@H]2CC[C@H](C)c3c2c1c(C)c1ncoc31`, for which the figures for the TGI in the assay with SK-MEL-5 melanoma and in the assay with RPMI-8226 leukemia were 28.6 µM and 36.9 µM, respectively.

As to `COC(=O)CC(C)(NS(=O)c1ccc(C)cc1)c1ccccc1` (stereo unspecified), the TGI in the assay with SK-MEL-5 melanoma and in the assay on RPMI-8226 leukemia was more than 100 µM each time.

`C/C(=N\NC(N)=S)c1ccc2c(c1)Sc1ccccc1O2`: the TGI turned out to be 6.83 µM in the assay on SK-MEL-5 melanoma and 16.4 µM in the assay on RPMI-8226 leukemia.

Take `Cc1cn(C2OC(CO[Si](C)(C)C(C)(C)C)C(N(C)O[Si](C)(C)C(C)(C)C)C2[Se]c2ccccc2)c(=O)[nH]c1=O` (stereo unspecified): the TGI in the assay on SK-MEL-5 melanoma is 53.7 µM; in the assay with RPMI-8226 leukemia it was more than 100 µM.

For the compound `COc1ccc2oc3c(C)cc4c(OC)nnc(OC)c4c3c2c1`, the TGI in the assay with SK-MEL-5 melanoma and with RPMI-8226 leukemia was more than 100 µM each time.

For `Cc1ccc2nc(-c3ccccc3)cc(=O)n2c1`, the TGI in the assay on SK-MEL-5 melanoma and in the assay on RPMI-8226 leukemia was more than 100 µM each time.

As to `C(=C/CCCN1O[C@@H](CCCCCCCCc2cccnc2)[C@H]2CCC[C@H]21)/CCCCCCCCCc1cccnc1`, the TGI in the assay on SK-MEL-5 melanoma is 43.7 µM; in the assay with RPMI-8226 leukemia, 28 µM.

`CC1=C/C(=N\NC(N)=S)C(C(O)(C(F)(F)F)C(F)(F)F)C(C)(C)C1` (stereo unspecified): the TGI in the assay on SK-MEL-5 melanoma and in the assay on RPMI-8226 leukemia was more than 10 µM in each case.

As to `COC(=O)[C@]1(C)CCC[C@@]2(C)C1CC[C@@]13C=C(C(C)C)[C@@H](CC1=O)CC23` (stereo partly specified), the TGI was 33 µM with SK-MEL-5 melanoma and 40.1 µM with RPMI-8226 leukemia.

As to `N#CSC#CCCC#CSC#N`, the TGI in the assay with SK-MEL-5 melanoma worked out at 34.8 µM.
